Six compounds from patent US12421257B2, “Compositions and methods for inhibiting group II intron RNA” (YALE UNIVERSITY, priority 2018, dated 2025) can be followed below.

One test has as its system C. parapsilosis. Kind of test: MIC determination against C. parapsilosis. Conditions: RPMI-1640, 35° C. or 37° C., turbidity after 24 and 48 hours; for MIC: Lodderomyces parapsilosis. The test is classed as cell-based, Candida parapsilosis. In short, it runs like this: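 Broth microdilution in RPMI-1640 with C. parapsilosis at 0.5×10^3 to 2.5×10^3 CFU/mL; test compounds 0.25-128 μg/ml final, 1% DMSO. Plates incubated at 35° C or 37° C, turbidity read visually at 24 and 48 h. MIC = lowest concentration without visible growth; triplicates.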

In the next test the test system is HEK-293T cells. Kind of test: Cytotoxicity in HEK-293T cells (Cell Titer Glo). The settings on record: Homo sapiens, cytotoxicity, 24 hours with compound, read-out: IC50 HEK-293. The test is classed as cell-based, human. A general note: In ATP-based viability assays light output follows the ATP content of the culture.
The next test deals with S. cerevisiae. Kind of test: Yeast respiration assay in S. cerevisiae (MIC in YPD / YPGE). The test is classed as cell-based, Saccharomyces cerevisiae. The settings on record: 30° C.; for MIC: Saccharomyces cerevisiae. As for the experimental part: Yeast respiration assays were conducted either in liquid YPD media (BD Bacto Yeast Extract, BD Bacto Peptone, 2% glucose) or in YPGE media (BD Bacto Yeast Extract, BD Bacto Peptone, 3% glycerol, 3% ethanol), essentially as described for the antifungal MIC assays (see below). To initiate these experiments, 100 μl of a fresh stock solution was prepared for each compound (3.2 mg/ml for Amphotericin B and 12.8 mg/ml for each test compounds) in DMSO. This concentrated stock solution was placed in the first well of 12-well row on a 96-well plate. The subsequent nine wells in this row contained 50 μl of DMSO for serial dilution. From the first well, 50 μl of the compound stock was withdrawn, transferred to the second well and mixed. This process was repeated from the second and subsequent wells, resulting in a 1:2 serial dilution of the stock into DMSO. Wells 11 and 12 contained DMSO only, to be used as no compound control and sterility control, with no inoculum added, respectively. After preparing this plate, 2.5 μl from each of the 12 wells was transferred to the wells of a separate 96-well plate, each of which contained 122.5 μl of YPD or YPGE medium, resulting in a set of serial dilutions of compound into growth media in a volume of 125 μl. Then 50 μl from each of these dilutions were transferred onto a third 96-well plate (the assay plate) and mixed with an equal volume (50 μl) of freshly prepared yeast inoculum in YPD or YPGE medium set to provide 0.5×10^3 to 2.5×10^3 colony forming units per 1 mL (wells 1-11), or YPD/YPGE alone (sterility control, well 12). The final compound concentration range of the assay was 0.25-128 μg/ml for test compounds and 0.0625-32 μg/ml for Amphotericin B. The final concentration of DMSO was 1%. Plates were incubated at 30° C. and visually analyzed for turbidity after 24 and 48 hours of incubation. The lowest compound concentration at which no growth was apparent is reported as the MIC (Table 1). All experiments were performed in triplicate.

Test [1] deals with ai5γ group II intron (D135 ribozyme). Kind of test: Fluorescent D135 ribozyme cleavage assay (IC50). Format: biochemical, Saccharomyces cerevisiae. Conditions: for IC50: D135 ribozyme cleavage of substrate 17/2 DL, 100 mM MgCl2, 500 mM KCl, 37° C., 10 minutes; for In vitro inhibitory activity, SAR statement (in words): relative to parent scaffold. A digest of the protocol:
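D135 ribozyme (20 nM) with double-labeled substrate 17/2 DL (20 nM) in 50 mM MOPS pH 7.0, 100 mM MgCl2, 0.5 M KCl; 19 inhibitor concentrations, 5 nM–1 mM, 10 min at 37 °C, EDTA quench, fluorescence read. Triplicates fit to 4-parameter logistic for IC50; mean±s.e.m.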

A further test concerns the target ai5γ group II intron. Kind of test: Radioanalytic self-splicing assay of SE RNA (Ki). The test is classed as biochemical, Saccharomyces cerevisiae. Conditions: 8 mM MgCl2, 100 mM KCl, pH 7.5, 30° C. Here is the method:
Internally labeled SE RNA (2 nM) was incubated with various concentrations of inhibitor compound under near-physiological conditions (in 50 mM MOPS, pH 7.5, 8 mM MgCl2, 100 mM KCl) at 30° C. Aliquots at different time points were quenched and analyzed on 5% denaturing polyacrylamide gel as previously described (Daniels et al., 1996, Journal of molecular biology, 256:31-49). Data were fit to a single-exponential equation to determine the first order rate constants (kobs). The latter were then plotted against the concentration of the inhibitor and fit to the equation for non-competitive inhibition to determine Ki values: kobs=kmax/(1+[I]/Ki), where kobs and kmax are the first order rate constants measured in the presence and in the absence of the inhibitor, respectively, [I] is the concentration of the inhibitor and Ki is the inhibition constant. Experiments were performed four times for API-014, three times for APY-090, Intronistat A, and Intronistat B and twice for the remaining compounds to ensure reproducibility. Data represent average±s.e.m.

Test [2] has as its system C. parapsilosis COX1 group IIB intron. Kind of test: Group II intron splicing in C. parapsilosis by qRT-PCR. Format: cell-based, Candida parapsilosis. The settings on record: 32 μg/mL. In general terms: Quantitative PCR measures a nucleic acid by following its amplification.

Usually MIC stands for the lowest concentration found to suppress growth. The IC50 is the point on the concentration scale where inhibition reaches its midpoint. The Ki is the dissociation constant of the complex between target and ligand, obtained from inhibition or displacement.

Each structure is given as a SMILES string. In brackets after ≈: the same amount, converted by molar mass. Entries after “also recorded” stand apart in the source; their conditions may differ. Read-outs that look alike come from different tables or passages of the source. Bounds are passed on as bounds.

Consider `O=C1/C(=C/c2cc(O)c(O)c(O)c2)Oc2cccc(O)c21` [APY-019, (Z)-4-Hydroxy-2-(3,4,5-trihydroxybenzylidene)benzofuran-3(2H)-one], for which the MIC with C. parapsilosis was 16 µg/mL (≈ 55.9 µM); in the test on S. cerevisiae (YPD medium, read-out: MIC in YPD (glucose)), > 128 µg/mL; with S. cerevisiae (YPGE medium, read-out: MIC in YPGE (glycerol)) it was 64 µg/mL (≈ 224 µM). For the same compound, the IC50 in the test on HEK-293T cells was > 32 µg/mL.
`C[C@@H]1[C@H](O)[C@@H](C)/C=C/C=C/C=C/C=C/C=C/C=C/C=C/[C@H](O[C@@H]2O[C@H](C)[C@@H](O)[C@H](N)[C@@H]2O)C[C@@H]2O[C@](O)(C[C@@H](O)C[C@@H](O)[C@H](O)CC[C@@H](O)C[C@@H](O)CC(=O)O[C@H]1C)C[C@H](O)[C@H]2C(=O)O` [Amphotericin B, reference compound]: the “MIC C. parapsilosis” value in the test with C. parapsilosis was in the range of 0.5 to 1 µg/mL. Also, in the test on S. cerevisiae (YPD medium), the “MIC in YPD (glucose)” value worked out at 2 µg/mL (≈ 2.16 µM). Also, the “MIC in YPGE (glycerol)” value with S. cerevisiae (YPGE medium) amounted to 16 µg/mL (≈ 17.3 µM).
In the case of `COc1ccc(/C=C2\Oc3cc(O)cc(O)c3C2=O)cc1OC` [APY-001, (Z)-2-(3,4-Dimethoxybenzylidene)-4,6-dihydroxybenzofuran-3(2H)-one], in test [1], the IC50 was > 100 µM and the “In vitro inhibitory activity, SAR statement (in words)” value is “nearly complete loss of activity”. Also, the Ki on ai5γ group II intron is > 1000 µM. The minimum inhibitory concentration (MIC) against C. parapsilosis is > 128 µg/mL. Besides, in the test on HEK-293T cells, the IC50 was > 128 µg/mL. For the same compound, the “Splicing of C. parapsilosis COX1 in vivo (in words)” value in test [2] is “this effect was not observed; also recorded: inactive”.
For `O=C(c1cc2cc(-c3ccc(CO)cc3)ccc2o1)c1ccc(B(O)O)cc1F` [APY-098, [3-Fluoro-4-({5-[4-(hydroxymethyl)phenyl]-1-benzofuran-2-yl}carbonyl)phenyl]boronic acid], in test [1], the IC50 is > 1000 µM and the “In vitro inhibitory activity, SAR statement (in words)” value is given as “nearly complete loss of activity”. The inhibition constant (Ki) at ai5γ group II intron was > 1000 µM. Besides, the MIC in the test on C. parapsilosis is > 128 µg/mL. The IC50 in the test with HEK-293T cells amounted to 11 ± 3 µg/mL.
As to `COc1cc(CCC(=O)c2cc(O)c(O)c(O)c2)cc(OC)c1OC` [APY-069], the IC50 was 27 µM in test [1] and > 128 µg/mL in the test on HEK-293T cells. The compound further showed a Ki on ai5γ group II intron of 29 µM. In the test with C. parapsilosis, this compound yielded an MIC of 32 µg/mL (≈ 91.9 µM).
The like results for `O=C(N/N=C/c1ccc(O)cc1O)c1cc(O)c(O)c(O)c1` [APY-022] were, in that order, 5.5 µM, 17.6 µg/mL, 6.5 µM and 32 µg/mL (≈ 105 µM).
